Measured values from patent US8592181B2, “Brazzein variant having higher sweetness and method for preparing multi-variant” (Chung-Ang University Industry-Academy Cooperation Foundation, priority 2009, dated 2013).
Where no end group is shown, it is not given here.

How the values were obtained:
[1] = system: human sense of taste; test: Sweetness measured by human sense of taste (20 trained subjects, minimum concentration at which sweetness is first sensed); format: in vivo; details: for Minimum stimulation level in which one senses sweetness for first time / Multiples of increased sweetness to minor-type brazzein: primary brazzein variants; for Minimum stimulation level in which one senses sweetness for first time: 20 trained subjects; for Sweetness ratios of sucrose (1 g/100 ml) to primary brazzein variants (minor-type brazzein: 2000): relative to 1 g/100 ml sucrose threshold; for Multiples of increased sweetness to minor-type brazzein: relative to minor-type brazzein
Method: Since the recombinant brazzein according to the present invention is not a sucrose-based compound having a cyclic ring, the sweetness of the recombinant brazzein was not measured using a saccharometer. Therefore, the activity of the recombinant brazzein was measured using the human sense of taste. Sugar content measurement was performed on 20 subjects who were trained to feel substantially the same minimum concentration of sucrose in which they could sense sweetness using a sucrose solution. That is, a concentration of each brazzein variant in which the subjects could sense sweetness for the first time was measured. Also, a sweetness ratio of the sucrose solution to the wild-type brazzein was 1 g/100 ml, which was a minimum stimulation level in which the subjects could sense sweetness. Also, a sweetness ratio of the minor-type brazzein protein to the wild-type brazzein was 500 μg/100 ml, which was a minimum stimulation level in which the subjects could sense sweetness. Therefore, the sweetness was calculated using the sweetness ratios (That is, 1/0.0005=2000 for the minor-type brazzein).
Also, the brazzein multi-variants were measured for activity (sweetness) in the same manner as in Example 3-1.

[2] = system: sweetness; details: cited from earlier work; for Sweetness relative to sugar (sucrose): related art
[3] = cited from earlier work; for Thermal stability: related art
[4] = Thermal stability: heated at 80° C. for 4 hours in 50 mM Tris-HCl (pH 8.0), sweetness change level measured by the 20 subjects; format: physicochemical; details: primary variants
Method: On the basis of the results measured in Example 3-1, 100 mg of each of the brazzein variants having high sweetness, that is, brazzein(H30K) set forth in SEQ ID NO: 99, brazzein(H30R) set forth in SEQ ID NO: 100, brazzein(E35D) set forth in SEQ ID NO: 109, brazzein(E40A) set forth in SEQ ID NO: 113, brazzein(E40A) set forth in SEQ ID NO: 113, brazzein(E40D) set forth in SEQ ID NO: 114, brazzein(E40K) set forth in SEQ ID NO: 115, brazzein(E40H) set forth in SEQ ID NO: 116 and brazzein(E40R) set forth in SEQ ID NO: 117, was dissolved in a 50 mM Tris-HCl (pH 8.0) solution, and heated at 80° C. for 4 hours. Based on the sweetness measured before the heat treatment of the respective primary brazzein variants, a sweetness change level of each primary brazzein variant was then measured by the 20 subjects in the same manner as in Example 3-1.
Also, the brazzein multi-variants were measured for thermal stability in the same manner as in Example 3-2. […] From the high performance liquid chromatography analysis of the quaternary variants out of the brazzein multi-variants, it was confirmed that the quaternary variants maintained their constant thermal stability in spite of the fact that the quaternary variants had different structural properties than the minor-type brazzein protein.

For “minor-type brazzein: wild-type minor type of brazzein, 53 amino acid residues without pyroglutamic acid at the amino-terminal region (DKCKKVYENYPVSKCQLANQCNYDCKLRKHARSGECFYDEKRNLQCICDYCEY; ends and bridges not checked; cysteine pairing not given here) [reference compound]”, the “Minimum stimulation level in which one senses sweetness for first time” value (“Minimum stimulation level” below) [1] is listed as 500 μg/100 ml, the “Sweetness ratios of sucrose (1 g/100 ml) to primary brazzein variants (minor-type brazzein: 2000)” value (shortened to “Sweetness ratios of sucrose (1 g/100 ml)”) [1] is listed as 2000 and the “Sweetness relative to the major type of brazzein” value ([2]; Assadi-Porter et al. 2000) is listed as “approximately twice”.

For Monellin, the “Sweetness relative to sugar (sucrose)” value [2] is given as 3,000 times and the Thermal stability [3] is given as “low”.

In the case of “H30R: primary brazzein variant: His at position 30 of minor-type brazzein substituted with Arg (DKCKKVYENYPVSKCQLANQCNYDCKLRKRARSGECFYDEKRNLQCICDYCEY; Brazzein(H30R)) [Brazzein H30R]”, the “Multiples of increased sweetness to minor-type brazzein” value (“Multiples of increased sweetness” below) [1] is reported as 3.3, the “Minimum stimulation level” value [1] is reported as 150 μg/100 ml and the “Sweetness ratios of sucrose (1 g/100 ml)” value [1] is reported as 6,600. For the same compound, the “Thermal stability (relative activity after heat treatment)” value [4] was “maintained their thermal stabilities”.

In the case of “E35D: primary brazzein variant: Glu at position 35 of minor-type brazzein substituted with Asp (DKCKKVYENYPVSKCQLANQCNYDCKLRKHARSGDCFYDEKRNLQCICDYCEY; Brazzein(E35D)) [Brazzein E35D]”, the “Multiples of increased sweetness” value [1] is reported as 3.3, the “Minimum stimulation level” value [1] is reported as 150 μg/100 ml and the “Sweetness ratios of sucrose (1 g/100 ml)” value [1] is reported as 6,600. The “Thermal stability (relative activity after heat treatment)” value [4] was “maintained their thermal stabilities”.

With “E40A: primary brazzein variant: Glu at position 40 of minor-type brazzein substituted with Ala (DKCKKVYENYPVSKCQLANQCNYDCKLRKHARSGECFYDAKRNLQCICDYCEY; Brazzein(E40A)) [Brazzein E40A]” the “Multiples of increased sweetness” value [1] was 3.3, the “Minimum stimulation level” value [1] was 150 μg/100 ml and the “Sweetness ratios of sucrose (1 g/100 ml)” value [1] was 6,600. The “Thermal stability (relative activity after heat treatment)” value [4] was “maintained their thermal stabilities”.

For `C=C1C[C@@]23CC[C@H]4[C@@](C)(CCC[C@@]4(C)C(=O)O[C@@H]4O[C@H](CO)[C@@H](O)[C@H](O)[C@H]4O)[C@@H]2CC[C@]1(O[C@@H]1O[C@H](CO)[C@@H](O)[C@H](O)[C@H]1O[C@@H]1O[C@H](CO)[C@@H](O)[C@H](O)[C@H]1O)C3` [stevioside], the “Sweetness relative to sugar (sucrose)” value [2] is given as 200 times.

For “Brazzein: sweetener protein extracted from the fruit of Pentadiplandra brazzeana (Baillon) (QDKCKKVYENYPVSKCQLANQCNYDCKLDKHARSGECFYDEKRNLQCICDYCEY; UniProt P56552 1-54, looked up)”, the “Solubility and pH stability in water” value ([3]; Gao et al. 1999) is listed as “very high” and the Thermal stability [3] is listed as “very high”.

In the case of `O=C1NS(=O)(=O)c2ccccc21` [saccharin], the “Sweetness relative to sugar (sucrose)” value [2] is given as “approximately 500 times”.

For “E40D: primary brazzein variant: Glu at position 40 of minor-type brazzein substituted with Asp (DKCKKVYENYPVSKCQLANQCNYDCKLRKHARSGECFYDDKRNLQCICDYCEY; Brazzein(E40D)) [Brazzein E40D]”, the “Minimum stimulation level” value [1] was 150 μg/100 ml, the “Sweetness ratios of sucrose (1 g/100 ml)” value [1] was 6,600 and the “Thermal stability (relative activity after heat treatment)” value [4] was “maintained their thermal stabilities”.
